Read-outs that look alike come from different tables or passages of the source. One block for each compound: values may come before it.
Tested on: PMA-differentiated THP-1 cells
Assay: IL-1β production in PMA-differentiated THP-1 cells stimulated with gramicidin (hTHP-1 assay containing 2% fetal bovine serum; Procedures 1 and 2)
Format: cell-based, human
Details: 2% fetal bovine serum
Description: The following protocol is suitable for testing the activity of the compounds disclosed herein. Procedure 1: IL-1β Production in PMA-Differentiated THP-1 Cells Stimulated with Gramicidin.
THP-1 cells were purchased from the American Type Culture Collection and sub-cultured according to instructions from the supplier. Cells were cultured in complete RPMI 1640 (containing 10% heat inactivated FBS, penicillin (100 units/ml) and streptomycin (100 μg/ml)), and maintained in log phase prior to experimental setup. Prior to the experiment, compounds were dissolved in dimethyl sulfoxide (DMSO) to generate a 30 mM stock. The compound stock was first pre-diluted in DMSO to 3, 0.34, 0.042 and 0.0083 mM intermediate concentrations and subsequently spotted using Echo550 liquid handler into an empty 384-well assay plate to achieve desired final concentration (e.g. 100, 33, 11, 3.7, 1.2, 0.41, 0.14, 0.046, 0.015, 0.0051, 0.0017 μM). DMSO was backfilled in the plate to achieve a final DMSO assay concentration of 0.37%. The plate was then sealed and stored at room temperature until required.
THP-1 cells were treated with PMA (Phorbol 12-myristate 13-acetate) (20 ng/ml) for 16-18 hours. On the day of the experiment the media was removed and adherent cells were detached with trypsin for 5 minutes. Cells were then harvested, washed with complete RPMI 1640, spun down, and resuspended in RPMI 1640 (containing 2% heat inactivated FBS, penicillin (100 units/ml) and streptomycin (100 μg/ml). The cells were plated in the 384-well assay plate containing the spotted compounds at a density of 50,000 cells/well (final assay volume 50 μl). Cells were incubated with compounds for 1 hour and then stimulated with gramicidin (5 μM) (Enzo) for 2 hours. Plates were then centrifuged at 340 g for 5 min. Cell free supernatant (40 μL) was collected using a 96—CHannel PlateMaster (Gilson) and the production of IL-1β was evaluated by HTRF (cisbio). The plates were incubated for 18 h at 4° C. and read using the preset HTRF program (donor emission at 620 nm, acceptor emission at 668 nm) of the SpectraMax i3x spectrophotometer (Molecular Devices, software SoftMax 6). A vehicle only control and a dose titration of CRID3 (100-0.0017 μM) were run concurrently with each experiment.
Procedure 2: IL-1β Production in PMA-Differentiated THP-1 Cells Stimulated with Gramicidin.
THP-1 cells were purchased from the American Type Culture Collection and sub-cultured according to instructions from the supplier. Prior to experiments, cells were cultured in complete RPMI 1640 (containing 10% heat inactivated FBS, penicillin (100 units/ml) and streptomycin (100 μg/ml)), and maintained in log phase prior to experimental setup. Prior to the experiment THP-1 were treated with PMA (Phorbol 12-myristate 13-acetate) (20 ng/ml) for 16-18 hours. Compounds were dissolved in dimethyl sulfoxide (DMSO) to generate a 30mM stock. On the day of the experiment the media was removed and adherent cells were detached with trypsin for 5 minutes. Cells were then harvested, washed with complete RPMI 1640, spun down, resuspended in RPMI 1640 (containing 2% heat inactivated FBS, penicillin (100 units/ml) and streptomycin (100 μg/ml). The cells were plated in a 384-well plate at a density of 50,000 cells/well (final assay volume […]). Compounds were first dissolved in assay medium to obtain a 5× top concentration of 500 μM. 10 step dilutions (1:3) were then undertaken in assay medium containing 1.67% DMSO. 5× compound solutions were added to the culture medium to achieve desired final concentration (e.g. 100, 33, 11, 3.7, 1.2, 0.41, 0.14, 0.046, 0.015, 0.0051, 0.0017 μM). Final DMSO concentration was at 0.37%. Cells were incubated with compounds for 1 hour and then stimulated with gramicidin (5 μM) (Enzo) for 2 hours. Plates were then centrifuged at 340 g for 5 min. Cell free supernatant (40 μL) was collected using a 96—CHannel PlateMaster (Gilson) and the production of IL-1β was evaluated by HTRF (cisbio). […]

[1] = Homo sapiens, THP-1, Table B1, class symbols, read-out: Average IC50 of compounds in hTHP-1 assay: hTHP-1 IC50
[2] = Homo sapiens, THP-1, Table B2, class symbols, read-out: hTHP-1 IC50
[3] = Homo sapiens, THP-1, Table B3, hTHP-1 assay, class symbols, read-out: IC50

- IC50 (Table B1, class symbols, read-out: Average IC50 of compounds in hTHP-1 assay: hTHP-1 IC50): 0.04 to 0.2 µM
Structure (SMILES): CC1CCc2c1nc1c(c2NC(=O)N=S(N)(=O)c2cc(C(C)(C)O)cs2)CCC1 (stereo not shown) [Compound 141, 4-(2-hydroxypropan-2-yl)-N′-((3-methyl-1,2,3,5,6,7-hexahydrodicyclopenta[b,e]pyridin-8-yl)carbamoyl)thiophene-2-sulfonimidamide]

- IC50 [3]: 0.2 to 1 µM
Structure (SMILES): NS(=O)(=NC(=O)Nc1c2c(nc3c1CCC31CC1)CCC2)c1nn(C(F)F)cc1F (stereo not shown) [Example 569, 1-(Difluoromethyl)-4-fluoro-N′-((1′,5′,6′,7′-tetrahydro-2′H-spiro[cyclopropane-1,3′-dicyclopenta[b,e]pyridin]-8′-yl)carbamoyl)-1H-pyrazole-3-sulfonimidamide]

- IC50 (Homo sapiens, THP-1, Table B4, class symbols, read-out: hTHP-1 IC50): 1 to 5 µM
Structure (SMILES): C[C@H]1CCc2c1nc1c(c2NC(=O)N=S(N)(=O)c2cnc([C@@](C)(O)CO)s2)CCC1 (single isomer, unassigned) [Example 729]

- IC50 [1]: 0.2 to 1 µM
Structure (SMILES): CC(C)(O)c1nc(S(N)(=O)=NC(=O)Nc2c3c(nc4c2CCC4)CCC3)cs1 (stereo not shown) [Compound 154]

More lines, now with the values behind:

Structure (SMILES): CC(C)c1csc(S(N)(=O)=NC(=O)Nc2c3c(nc4c2CCC4)CCC3)c1 (stereo not shown) [Compound 173, N′-((1,2,3,5,6,7-hexahydrodicyclopenta[b,e]pyridin-8-yl)carbamoyl)-4-isopropylthiophene-2-sulfonimidamide]
- IC50 [1]: 0.2 to 1 µM

Structure (SMILES): C[C@@H]1CCc2c1nc1c(c2NC(=O)N=S(N)(=O)c2nn(-c3ccccc3)cc2F)CCC1 (single isomer, unassigned) [Example 792, (S) or (R)-4-fluoro-N′-(((R)-3-methyl-1,2,3,5,6,7-hexahydrodicyclopenta[b,e]pyridm-8-yl)carbamoyl)-1-phenyl-1H-pyrazole-3-sulfonimidamide]
- IC50 (Homo sapiens, THP-1, Table B4, numeric bounds, read-out: hTHP-1 IC50): > 30 µM

Structure (SMILES): CC(C)(O)c1cc(F)c(S(N)(=O)=NC(=O)Nc2c3c(nc(C4CC4)c2C2CC2)CCC3)s1 (stereo not shown) [Compound 727]
- IC50 [2]: 0.2 to 1 µM

Structure (SMILES): COC(C)(C)c1nc(CO)c(S(N)(=O)=NC(=O)Nc2c3c(nc4c2CCC4(C)C)CCC3)s1 (single isomer, unassigned) [Compound 648b, (S) or (R)-N′-((3,3-dimethyl-1,2,3,5,6,7-hexahydrodicyclopenta [b,e]pyridin-8-yl)carbamoyl)-4-(hydroxymethyl)-2-(2-methoxypropan-2-yl)thiazole-5-sulfonimidamide]
- IC50 (Homo sapiens, THP-1, Table B2, numeric bounds, read-out: hTHP-1 IC50): > 30 µM

Structure (SMILES): CC1CCc2c1nc1c(c2NC(=O)N=S(N)(=O)c2cnn(C(C)C)c2)CCC1 (single isomer, unassigned) [Compound 171b, (R, S) and (R, R) or (S, R) and (S, S)-1-Isopropyl-N′-((3-methyl-1,2,3,5,6,7-hexahydrodicyclopenta [b,e]pyridin-8-yl)carbamoyl)-1H-pyrazole-4-sulfonimidamide]
- IC50 (Table B2, class symbols, read-out: hTHP-1 IC50): 5 to 30 µM

Structure (SMILES): Cc1nc2c(c(NC(=O)N=S(N)(=O)c3nn(C(F)F)cc3F)c1-c1ccccc1)CCC2 (stereo not shown) [Example 620, 1-(Difluoromethyl)-4-fluoro-N′-((2-methyl-3-phenyl-6,7-dihydro-5H-cyclopenta[b]pyridin-4-yl)carbamoyl)-1H-pyrazole-3-sulfonimidamide]
- IC50 [3]: 0.2 to 1 µM

Structure (SMILES): CC1CCc2nc3c(c(NC(=O)N=S(N)(=O)c4cnc(C(C)(C)O)s4)c21)CCC3 (stereo not shown) [Compound 151, 2-(2-hydroxypropan-2-yl)-N′-((1-methyl-1,2,3,5,6,7-hexahydrodicyclopenta[b,e]pyridin-8-yl)carbamoyl)thiazole-5-sulfonimidamide]
- IC50 [1]: 0.2 to 1 µM

Structure (SMILES): CC(C)(O)c1cccc(S(N)(=O)=NC(=O)Nc2c3c(nc4c2CCC4)CCC3)c1 (single isomer, unassigned) [Compound 625b, (R) or (S)-N′-((1,2,3,5,6,7-hexahydrodicyclopenta [b,e]pyridin-8-yl)carbamoyl)-3-(2-hydroxypropan-2-yl)benzene-sulfonimidamide]
- IC50 [2]: 1 to 5 µM

Structure (SMILES): CCn1ccc(S(N)(=O)=NC(=O)Nc2c3c(nc4c2CCC42CC2)CCC3)n1 (single isomer, unassigned) [Example 687, (R) or (S)-1-Ethyl-N′-((1′,5′,6′,7′-tetrahydro-2′H-spiro[cyclopropane-1,3′-dicyclopenta[b,e]pyridin]-8′-yl)carbamoyl)-1H-pyrazole-3-sulfonimidamide]
- IC50 (Table B3, hTHP-1 assay, class symbols, read-out: IC50): 0.2 to 1 µM

Reference: patent publication US20230031406A1, “COMPOUNDS AND COMPOSITIONS FOR TREATING CONDITIONS ASSOCIATED WITH NLRP ACTIVITY” (Novartis AG, priority 2018, published 2023)
